Data on one compound can be found in US20140356287A1, “PLOD2 as a Target of Intervention for Sarcoma Metastasis” (The Trustees of the University of Pennsylvania, priority 2013, published 2014).

“Also recorded” adds a separate entry of the source.

In this data set the test system is KIA cells. Nature of the data set: Subcutaneous KIA cell allograft in nude mice (primary tumor, lung metastasis, collagen). It is filed as in vivo. The conditions noted are these: 1 mg/kg or 3 mg/kg intraperitoneal every other day for 3 weeks. From the text: Generation of Hif1α^fl/fl mice (Ryan et al., 2000, Cancer Res 60(15):4010-5) and LSL-Kras^G12D/+Trp53^fl/fl mice has been previously described (Kirsch et al., 2007, Nat Med 13(8):992-7). These mice were crossed to create the LSL-Kras^G12D/+Trp53^fl/flHif1a^fl/fl animals. Soft tissue sarcomas were generated by intramuscular injection of a calcium phosphate precipitate of Ad-Cre (Gene Transfer Vector Core, University of Iowa). For transplant tumors 1×106 KIA (derived from LSL-Kras^G12D/+[…] tumors) were injected subcutaneously into the flanks of nu/nu mice (Charles River Laboratories). In each experiment 10 mice per experimental group were used with each mouse bearing two subcutaneous tumors. Tumors developed after 3-5 days, were monitored every other day, and animals were euthanized after 20-30 days. For in vivo lung metastasis analysis lung tissues were removed, and sections were stained with hematoxylin and eosin. Images were acquired using a Nikon SMZ800 stereoscope with a Nikon 1200F digital camera and Nikon Act-1 software. The ratio of total metastatic sarcoma foci to total lung area (% tumor burden) was determined using ImagePro 6.3 software (Media Cybernetics Inc.). Additionally, the percent of animals in the entire cohort with metastatic foci was evaluated along with total number of metastatic foci per experiment and the averae number of sarcoma lung foci per lung in each experiment. For Minoxidil injections, allografts and drug treatments were started simultaneously. Mice bearing subcutaneous KIA tumors on each flank were intraperitoneal injected with PBS, 1 mg/kg Minoxidil, or 3 mg/kg Minoxidil every other day unless the animals were euthanized, the tumors and lungs removed.
Immunohistochemistry of tissue sections with antibodies to HIF1α (Abcam) and Lectin (Vector Labs) was performed using enzymatic Avidin-Biotin Complex (ABC)-diaminobenzidine (DAB) staining (Vector Labs). Nuclei were counterstained with hematoxylin. […] Collagen was quantified using Image-Pro software. […]

Take `Nc1cc(N2CCCCC2)nc(N)[n+]1[O-]` [Minoxidil]: the overall animal health/weight result is “no effect; also recorded: unaffected”, the primary tumor volume entry is reported as “no effect” and the “tumor weight (mass)” value is reported as “no effect”.
